According to ChEMBL document CHEMBL6092221, “Discovery of a Novel Macrocyclic Noncovalent CDK7 Inhibitor for Cancer Therapy” (J Med Chem, 2024):
In brackets after ≈: the same amount, converted by molar mass. One block for each molecule: values may come before it.

Key:
[1] = tested on: HCC70; test: cells; settings: Homo sapiens, HCC70, 72 h
Description: Antiproliferative activity against human HCC70 cells assessed as inhibition of cell proliferation incubated for 72 hrs by celltiter-glo assay

[2] = Half life in female Balb/c nude mouse at 5 mg/kg, po; type: ADME, organism-based; settings: in vivo
[3] = Efflux ratio of permeability in human Caco-2 cells; type: ADME, cell-based
[4] = Oral bioavailability in female Balb/c nude mouse at 5 mg/kg; type: ADME, organism-based; settings: in vivo
[5] = tested on: OVCAR-3; test: cells; settings: Homo sapiens, OVCAR-3, 72 h
Description: Antiproliferative activity against human OVCAR-3 cells assessed as inhibition of cell proliferation incubated for 72 hrs by celltiter-glo assay

[6] = Permeability in human Caco-2 cells; type: ADME, cell-based; settings: read-out: permeability
[7] = Cmax in female Balb/c nude mouse at 5 mg/kg, po; type: ADME, organism-based; settings: in vivo
[8] = AUC(0 to t) in female Balb/c nude mouse at 5 mg/kg, po; type: ADME, organism-based; settings: in vivo
[9] = Volume of distribution at steady state in female Balb/c nude mouse at 1 mg/kg, iv; type: ADME, organism-based; settings: in vivo, read-out: Vdss
[10] = Clearance in female Balb/c nude mouse at 1 mg/kg, iv; type: ADME, organism-based; settings: in vivo
[11] = target: Cyclin-dependent kinase 7/ cyclin H (Homo sapiens, UniProt P50613); test: Binding affinity to CDK7/CyclinH (unknown origin) assessed as dissociation constant by SPR assay; type: protein-complex assay
Cyclin-dependent kinase 7/ cyclin H, sequence (P51946 whole entry): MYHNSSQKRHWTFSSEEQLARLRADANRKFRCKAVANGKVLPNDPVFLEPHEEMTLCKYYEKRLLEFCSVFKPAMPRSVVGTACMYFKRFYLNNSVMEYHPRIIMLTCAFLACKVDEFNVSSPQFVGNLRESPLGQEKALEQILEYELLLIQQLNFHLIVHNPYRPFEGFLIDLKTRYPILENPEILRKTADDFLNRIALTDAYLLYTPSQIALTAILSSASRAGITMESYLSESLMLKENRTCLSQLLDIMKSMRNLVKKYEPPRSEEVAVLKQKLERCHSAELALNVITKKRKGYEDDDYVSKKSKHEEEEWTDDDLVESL
Cyclin-dependent kinase 7/ cyclin H, sequence (P50613 whole entry): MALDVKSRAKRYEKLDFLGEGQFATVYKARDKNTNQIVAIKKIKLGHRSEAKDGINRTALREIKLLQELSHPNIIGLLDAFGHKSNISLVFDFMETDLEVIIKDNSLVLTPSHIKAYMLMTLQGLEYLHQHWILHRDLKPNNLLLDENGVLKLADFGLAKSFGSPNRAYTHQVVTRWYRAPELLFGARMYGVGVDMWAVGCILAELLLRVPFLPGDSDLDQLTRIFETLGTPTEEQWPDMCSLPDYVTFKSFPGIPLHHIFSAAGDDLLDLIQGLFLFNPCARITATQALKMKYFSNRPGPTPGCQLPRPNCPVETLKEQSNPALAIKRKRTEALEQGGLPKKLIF

[12] = Oral bioavailability in mouse at 5 mg/kg; type: ADME, organism-based; settings: in vivo
[13] = target: hERG (Homo sapiens, UniProt Q12809); test: Inhibition of hERG at 10 uM relative to control; type: toxicity
hERG, sequence (Q12809 whole entry): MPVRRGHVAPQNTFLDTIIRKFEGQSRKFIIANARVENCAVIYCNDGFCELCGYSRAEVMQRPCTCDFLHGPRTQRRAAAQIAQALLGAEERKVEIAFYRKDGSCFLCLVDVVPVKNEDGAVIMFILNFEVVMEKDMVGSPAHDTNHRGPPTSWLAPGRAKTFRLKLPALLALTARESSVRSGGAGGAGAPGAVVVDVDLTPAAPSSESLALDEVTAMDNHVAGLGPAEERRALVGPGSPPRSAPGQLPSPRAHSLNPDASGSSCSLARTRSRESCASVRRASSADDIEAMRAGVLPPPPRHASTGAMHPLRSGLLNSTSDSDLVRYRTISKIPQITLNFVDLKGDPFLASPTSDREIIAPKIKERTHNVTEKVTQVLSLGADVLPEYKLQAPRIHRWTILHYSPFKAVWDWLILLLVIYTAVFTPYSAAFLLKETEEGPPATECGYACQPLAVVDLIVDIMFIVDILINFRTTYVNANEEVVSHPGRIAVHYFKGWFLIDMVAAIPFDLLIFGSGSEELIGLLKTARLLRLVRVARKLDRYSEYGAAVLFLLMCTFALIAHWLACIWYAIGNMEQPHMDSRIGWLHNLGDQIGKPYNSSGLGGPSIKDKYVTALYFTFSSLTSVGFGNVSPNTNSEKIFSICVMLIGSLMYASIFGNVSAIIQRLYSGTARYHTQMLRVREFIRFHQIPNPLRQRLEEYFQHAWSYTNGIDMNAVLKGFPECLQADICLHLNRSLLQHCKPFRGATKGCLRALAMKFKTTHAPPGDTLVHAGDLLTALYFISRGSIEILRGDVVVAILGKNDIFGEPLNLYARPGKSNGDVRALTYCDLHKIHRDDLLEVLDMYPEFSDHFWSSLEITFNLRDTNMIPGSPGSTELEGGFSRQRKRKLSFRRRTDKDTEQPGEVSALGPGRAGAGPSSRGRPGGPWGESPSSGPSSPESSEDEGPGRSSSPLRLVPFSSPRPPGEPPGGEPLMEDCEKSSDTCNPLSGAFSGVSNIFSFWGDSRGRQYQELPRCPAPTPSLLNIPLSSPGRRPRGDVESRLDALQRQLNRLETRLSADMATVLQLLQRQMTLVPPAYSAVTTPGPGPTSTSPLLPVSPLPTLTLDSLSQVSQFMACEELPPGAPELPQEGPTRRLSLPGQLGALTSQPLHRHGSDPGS

[14] = Metabolic stability in human liver microsomes assessed as intrinsic clearance; type: ADME, Microsome; settings: read-out: CLH
[15] = Plasma protein binding in rat assessed as unbound fraction; type: ADME, cell-free
[16] = Metabolic stability in mouse liver microsomes assessed as intrinsic clearance; type: ADME, Microsome; settings: read-out: CLH
[17] = AUC(0 to t) in mouse at 1 mg/kg, iv; type: ADME, organism-based; settings: in vivo
[18] = Volume of distribution at steady state in mouse at 1 mg/kg, iv; type: ADME, organism-based; settings: in vivo, iv, 1 mg/kg
[19] = Half life in mouse at 1 mg/kg, iv; type: ADME, organism-based; settings: in vivo, iv, 1 mg/kg
[20] = AUC(0 to t) in mouse at 5 mg/kg, po; type: ADME, organism-based; settings: in vivo
[21] = Cmax in dog at 2 mg/kg, po; type: ADME, organism-based, Canis lupus familiaris; settings: in vivo
[22] = Clearance in dog at 1 mg/kg, iv; type: ADME, organism-based, Canis lupus familiaris; settings: in vivo
[23] = Cmax in rat at 5 mg/kg, po; type: ADME, organism-based; settings: in vivo
[24] = Solubility of compound at pH 7.4; type: physicochemical; settings: buffer
[25] = Cmax in human OVCAR-3 cells xenografted in female Balb/c nude mouse plasma at 5 mg/kg, po administered once daily; type: ADME, organism-based
[26] = AUC(0 to t) in human HCC70 cells xenografted in female nu/nu mouse plasma at 1 mg/kg, po administered once daily; type: ADME, organism-based
[27] = Volume of distribution at steady state in rat at 1 mg/kg, iv; type: ADME, organism-based; settings: in vivo, read-out: Vdss
[28] = Plasma protein binding in mouse assessed as unbound fraction; type: ADME, cell-free
[29] = AUC (0 to t) in human OVCAR-3 cells xenografted in female Balb/c nude mouse plasma at 5 mg/kg, po administered once daily; type: ADME, organism-based
[30] = Half life in dog at 2 mg/kg, po; type: ADME, organism-based, Canis lupus familiaris; settings: in vivo
[31] = Drug concentration in rat plasma at 5 mg/kg, po measured after 0.5 hrs; type: ADME, organism-based
[32] = Clearance in rat at 1 mg/kg, iv; type: ADME, organism-based; settings: in vivo
[33] = Oral bioavailability in rat at 5 mg/kg; type: ADME, organism-based; settings: in vivo
[34] = tested on: HCC70; test: Antitumor activity against human HCC70 cells xenografted in female nu/nu mouse assessed as tumor growth inhibition at 1 mg/kg, po administered once daily and measured for 4 weeks; type: functional; settings: HCC70, 672 h, read-out: TGI
[35] = Cmax in mouse at 5 mg/kg, po; type: ADME, organism-based; settings: in vivo
[36] = Metabolic stability in rat liver microsomes assessed as intrinsic clearance; type: ADME, Microsome; settings: read-out: CLH
[37] = Half life in dog at 1 mg/kg, iv; type: ADME, organism-based, Canis lupus familiaris; settings: in vivo
[38] = Oral bioavailability in dog at 2 mg/kg; type: ADME, organism-based, Canis lupus familiaris; settings: in vivo
[39] = tested on: OVCAR-3; test: Antitumor activity against human OVCAR-3 cells xenografted in female Balb/c nude mouse assessed as tumor growth inhibition at 2 mg/kg, po administered once daily and measured on day 22; type: functional; settings: OVCAR-3, 528 h, time 22 day, read-out: TGI
[40] = AUC (0 to t) in dog at 1 mg/kg, iv; type: ADME, organism-based, Canis lupus familiaris; settings: in vivo
[41] = Plasma protein binding in human assessed as unbound fraction; type: ADME, cell-free
[42] = Toxicity in female nu/nu mouse xenografted with human HCC70 cells assessed as body weight loss at 1 to 10 mg/kg, po administered once daily and measured for 4 weeks; type: organism-based; settings: in vivo, 672 h, dose 1-10 mg/kg
[43] = Drug concentration in rat plasma at 5 mg/kg, po measured after 2 hrs; type: ADME, organism-based
[44] = AUC(0 to t) in dog at 2 mg/kg, po; type: ADME, organism-based, Canis lupus familiaris; settings: in vivo
[45] = Half life in mouse at 5 mg/kg, po; type: ADME, organism-based; settings: in vivo
[46] = Cmax in human HCC70 cells xenografted in female nu/nu mouse plasma at 1 mg/kg, po administered once daily; type: ADME, organism-based
[47] = Drug concentration in rat small intestine at 5 mg/kg, po measured after 0.5 hrs; type: ADME, organism-based; settings: read-out: Ct
[48] = Drug concentration in rat small intestine at 5 mg/kg, po measured after 8 hrs; type: ADME, organism-based; settings: read-out: Ct
[49] = AUC(0 to t) in rat at 1 mg/kg, iv; type: ADME, organism-based; settings: in vivo
[50] = Half life in rat at 1 mg/kg, iv; type: ADME, organism-based; settings: in vivo
[51] = Drug concentration in rat small intestine at 5 mg/kg, po measured after 2 hrs; type: ADME, organism-based; settings: read-out: Ct
[52] = AUC(0 to t) in rat at 5 mg/kg, po; type: ADME, organism-based; settings: in vivo
[53] = Drug concentration in rat plasma at 5 mg/kg, po measured after 8 hrs; type: ADME, organism-based
[54] = Volume of distribution at steady state in dog at 1 mg/kg, iv; type: ADME, organism-based, Canis lupus familiaris; settings: in vivo, read-out: Vdss

Compound: CP(C)(=O)c1c2ccc3c(c[nH]c13)-c1nc(ncc1C(F)(F)F)N[C@H]1CC[C@@H](C1)NCCCCCCNC2=O
IC50 [1]: 422 nM

half-life [2]: 2.1 h
efflux ratio [3]: 19.2
bioavailability [4]: 22.7%
IC50 [5]: 105 nM
Papp [6]: 0.72 ×10⁻⁶ cm/s
Cmax [7]: 105 ng/mL
AUC(0-t) [8]: 302 ng·h/mL
Vd [9]: 5.6 L/kg
clearance [10]: 62.5 mL/min/kg
Compound: CN1CCCCN(C)[C@H]2CC[C@@H](C2)Nc2ncc(C(F)(F)F)c(n2)-c2c[nH]c3c(P(C)(C)=O)c(ccc23)C1=O
IC50 [1]: 22 nM

half-life [2]: 2.4 h
efflux ratio [3]: 11.2
bioavailability [4]: 24.3%
IC50 [5]: 59.1 nM
Papp [6]: 1.91 ×10⁻⁶ cm/s
Cmax [7]: 170 ng/mL
Kd [11]: 0.12 nM
AUC(0-t) [8]: 365 ng·h/mL
Vd [9]: 3.6 L/kg
clearance [10]: 55.3 mL/min/kg
Compound: CN1C[C@@H](F)CCN(C)[C@H]2CC[C@@H](C2)Nc2ncc(C(F)(F)F)c(n2)-c2c[nH]c3c(P(C)(C)=O)c(ccc23)C1=O
IC50 [1]: 66.5 nM

half-life [2]: 1.5 h
efflux ratio [3]: 32.5
bioavailability [4]: 28.4%
IC50 [5]: 241 nM
Papp [6]: 0.39 ×10⁻⁶ cm/s
Cmax [7]: 268 ng/mL
AUC(0-t) [8]: 572 ng·h/mL
Vd [9]: 1.5 L/kg
clearance [10]: 41.3 mL/min/kg
Compound: CN1CCOCCN(C)[C@H]2CC[C@@H](C2)Nc2ncc(C(F)(F)F)c(n2)-c2c[nH]c3c(P(C)(C)=O)c(ccc23)C1=O
IC50 [1]: 56.1 nM

bioavailability [12]: 94.3%
CLint scaled [14]: 7.2 mL/min/kg
fraction unbound [15]: 0.163
CLint scaled [16]: < 26.7 mL/min/kg
AUC(0-t) [17]: 406 ng·h/mL
Vdss [18]: 5.9 L/kg
t1/2 [19]: 0.6 h
AUC(0-t) [20]: 1920 ng·h/mL
Cmax [21]: 123 ng/mL
clearance [22]: 14.5 mL/min/kg
Cmax [23]: 76 ng/mL
solubility [24]: 172 µg/mL (≈ 351 µM)
Cmax [25]: 80 ng/mL
Vd [27]: 16.9 L/kg
fraction unbound [28]: 0.065
AUC(0-t) [29]: 387 ng·h/mL
half-life [30]: 6.6 h
Papp [6]: 2.54 ×10⁻⁶ cm/s
concentration at 0.5 h [31]: 13.4 ng/mL
clearance [32]: 67.5 mL/min/kg
bioavailability [33]: 89.7%
Cmax [35]: 339 ng/mL
CLint scaled [36]: 4.3 mL/min/kg
half-life [37]: 6.9 h
bioavailability [38]: 65.8%
AUC(0-t) [40]: 1110 ng·h/mL
fraction unbound [41]: 0.142
concentration at 2 h [43]: 69.3 ng/mL
AUC(0-t) [44]: 1460 ng·h/mL
half-life [45]: 2.7 h
concentration at 0.5 h [47]: 2500 ng/g
concentration at 8 h [48]: 842 ng/g
AUC(0-t) [49]: 247 ng·h/mL
half-life [50]: 3.2 h
concentration at 2 h [51]: 5030 ng/g
AUC(0-t) [52]: 920 ng·h/mL
concentration at 8 h [53]: 43.1 ng/mL
Vd [54]: 7.6 L/kg
Compound: CC1(C)CC[C@H](Nc2ncc(C(F)(F)F)c(-c3c[nH]c4c(P(C)(C)=O)c(C#N)ccc34)n2)CN1 [SY-5609]
inhibition at 10 µM [13]: 37.1%
AUC(0-t) [26]: 138 ng·h/mL
inhibition in vivo at 1 mg/kg [34]: 48.8%
inhibition in vivo at 2 mg/kg [39]: 110%
Activity [42]: Non-toxic
IC50 [1]: 72 nM
Cmax [46]: 33.5 ng/mL

half-life [2]: 1 h
efflux ratio [3]: 1.1
bioavailability [4]: 30.9%
IC50 [5]: 180 nM
Papp [6]: 26 ×10⁻⁶ cm/s
Cmax [7]: 343 ng/mL
Kd [11]: 3.5 nM
AUC(0-t) [8]: 563 ng·h/mL
Vd [9]: 1 L/kg
clearance [10]: 45.8 mL/min/kg
Compound: CN1CCCCO[C@H]2CC[C@@H](C2)Nc2ncc(C(F)(F)F)c(n2)-c2c[nH]c3c(P(C)(C)=O)c(ccc23)C1=O
IC50 [1]: 243 nM
